Patent publication US20260062422A1 (Halda Therapeutics OpCo, Inc., priority 2022, published 2026)

What was measured:
T47D cells = assay: Cellular growth inhibition assay for T47D cells, CellTiter-Glo; format: cell-based, human; conditions: 72 hours treatment, CellTiter-Glo 2.0 cell viability
Procedure, shortened: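 Cells are plated at 3000/well and allowed 24 h before treatment. Test compound in medium containing 0.5% DMSO is then added, with DMSO-only wells as negative control, and plates are incubated 72 h at 37 °C. ATP luminescence (CellTiter-Glo 2.0) is then fitted to four parameters to derive GI50.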

[1] = Cellular growth inhibition, T-Rex 293 SC cells with doxycycline (progesterone receptor isoform B induced), Example 45; format: cell-based; conditions: progesterone receptor isoform B induced with 10 ng/mL doxycycline, 72 hours, CellTiter-Glo 2.0, Table 11
Procedure: (§1) The following types of cells were prepared for this experiment: (i) a T-Rex 293 cell line having increased expression of progesterone receptor isoform B protein due to exposure to doxycycline and (ii) a T-Rex 293 cell line lacking increased expression of progesterone receptor isoform B protein. Ability of the test compounds to inhibit proliferation of the foregoing cell types was evaluated according to the procedures set forth below.
(§2) The doxycycline-inducible progesterone receptor isoform B protein expressing cell line was established using the following protocol: T-Rex 293 cells were purchased from Invitrogen (Cat #R71007) and transfected using Lipofectamine 2000 with the wild-type progesterone receptor B protein sequence cloned into the pcDNA4/TO vector. Transfected cells were selected using 400 μg/mL Zeocin (Invitrogen Cat #R25001). Following selection, single clones were raised and maintained in Dulbecco's Modified Eagle Medium (DMEM) supplemented with 10% w/w Tetracycline-free fetal bovine serum (FBS) and 250 μg/mL Zeocin. Clones were analyzed for expression of progesterone receptor isoform B protein in the presence and absence of 10 ng/mL doxycycline (Sigma Cat #D9891), and a single doxycycline-inducible clone (hereinafter “SC”) was selected for use in downstream assays.
(§3) The SC cells were seeded on poly-D-lysine coated, black clear-bottom 384-well plates at 2500/well, in 25 μL Phenol Red Free Dulbecco's Modified Eagle Medium (DMEM) supplemented with 10% w/w charcoal-dextran treated fetal bovine serum (FBS) and 1% w/w pen-strep, with or without 10 ng/mL doxycycline. Pen-Strep is a commercially available mixture of penicillin G and streptomycin, which is used in mammalian cell culture media to prevent bacterial contamination. Phenol Red Free Dulbecco's Modified Eagle Medium (DMEM) supplemented with 10% w/w charcoal-dextran treated fetal bovine serum (FBS) and 1% w/w pen-strep, with or without 10 ng/mL doxycycline is herein referred to as Treatment Medium. Following seeding of cells in the plates, the plates were spun at 300×g for 30 seconds, then equilibrated to room temperature for 30 minutes, and then deposited in a humidified tissue culture incubator maintained at 37° C. with 5% CO2.
(§4) At 24 hours after seeding of the cells, dilutions of test compound were prepared in DMSO and dissolved in Treatment Medium, to achieve a final DMSO concentration of 0.5% w/w, thereby providing the Test Compound Solution. A 25 μL aliquot of the Test Compound Solution was added to cells in the well plates. An equal volume of a solution containing DMSO and Treatment Medium was used as a negative control. Following treatment of cells with Test Compound Solution or said equal volume of a solution containing DMSO and Treatment Medium, the plates were spun at 300×g for 30 seconds, and then left in an incubator for 72 hours.
(§5) At the end of the treatment duration, cell viability was quantified with CellTiter-Glo 2.0 reagent (Promega Cat #G9243). For this purpose, plates were equilibrated to room temperature for 30 minutes, and then 25 μL of CellTiter-Glo 2.0 reagent was added to cells in the plate wells. Plates were then agitated on a shaker for two minutes at 500 rpm and subsequently incubated at room temperature for 10 minutes. Following incubation, the plates were spun at 3000×g for 30 seconds, then sealed with an optical adhesive cover, and luminescence readings were measured with an EnVision Plate Reader (Perkin Elmer).
(§6) Data was normalized using zero luminescence for baseline. A four-parameter non-linear regression curve fit was applied to dose-response data in GraphPad Prism data analysis software to determine the half-maximal growth inhibitory concentration (GI50) for each test compound.

[2] = system: T-Rex 293 cell line SC cells lacking increased expression of progesterone receptor isoform B protein; assay: Cellular growth inhibition, T-Rex 293 SC cells without doxycycline, Example 45; format: cell-based; conditions: T-Rex 293 SC cells not exposed to doxycycline, 72 hours treatment, CellTiter-Glo 2.0
Procedure: as §1, §2, §3, §4, §5, §6

| Structure (SMILES) | GI50 (T47D cells; Homo sapiens, T47D, 72 h) [µM] | GI50 (T47D cells) [µM] | GI50 [1] [µM] | GI50 [2] [µM] |
| --- | --- | --- | --- | --- |
| CCNC(=O)C[C@@H]1N=C(c2ccc(OC3CCN(C4CCN(c5ncc(C(=O)N[C@H]6C(C)(C)[C@H](Oc7ccc(C#N)c(Cl)c7)C6(C)C)cn5)CC4)C3)cc2)c2c(sc(C)c2C)-n2c(C)nnc21 (some centres unmarked) [Compound I-85] | < 0.5 |  | < 0.5 | 0.5 to 1.5 |
| CCNC(=O)C[C@@H]1N=C(c2ccc(C#CCN3CCN(c4ncc(C(=O)N[C@H]5C(C)(C)[C@H](Oc6ccc(C#N)c(Cl)c6)C5(C)C)cn4)CC3)cc2)c2c(sc(C)c2C)-n2c(C)nnc21 [Compound I-54, N-[3-(3-chloro-4-cyano-phenoxy)-2,2,4,4-tetramethyl-cyclobutyl]-2-[4-[3-[4-[(9S)-9-[2-(ethylamino)-2-oxo-ethyl]-4,5,13-trimethyl-3-thia-1,8,11,12-tetrazatricyclo[8.3.0.02,6]trideca-2(6),4,7,10,12-pentaen-7-yl]phenyl]prop-2-ynyl]piperazin-1-yl]pyrimidine-5-carboxamide] | 0.5 to 1.5 |  | < 0.5 | < 0.5 |
| Cc1sc2c(c1C)C(c1ccc(OC3CC4(CCN(c5ncc(C(=O)N[C@H]6C(C)(C)[C@H](Oc7ccc(C#N)c(Cl)c7)C6(C)C)cn5)CC4)C3)cc1)=NC(Cc1ncco1)c1nnc(C)n1-2 (some centres unmarked) [Compound I-166] | 0.5 to 1.5 |  |  |  |
| CCNC(=O)C[C@@H]1N=C(c2cccc(OCCOC3CCN(c4ncc(C(=O)N[C@H]5C(C)(C)[C@H](Oc6ccc(C#N)c(Cl)c6)C5(C)C)cn4)CC3)c2)c2c(sc(C)c2C)-n2c(C)nnc21 [Compound I-46, N-((1r,3r)-3-(3-chloro-4-cyanophenoxy)-2,2,4,4-tetramethylcyclobutyl)-2-(4-(2-(3-((S)-6-(2-(ethylamino)-2-oxoethyl)-2,3,9-trimethyl-6H-thieno[3,2-f][1,2,4]triazolo[4,3-a][1,4]diazepin-4-yl)phenoxy)ethoxy)piperidin-1-yl)pyrimidine-5-carboxamide] | 0.5 to 1.5 |  | < 0.5 | 0.5 to 1.5 |
| CCNC(=O)C[C@@H]1N=C(c2ccc(N(C)C3CC(OC4CCN(c5ncc(C(=O)N[C@H]6C(C)(C)[C@H](Oc7ccc(C#N)c(Cl)c7)C6(C)C)cn5)CC4)C3)cc2)c2c(sc(C)c2C)-n2c(C)nnc21 (some centres unmarked) [Compound I-130] | 0.5 to 1.5 |  | < 0.5 | < 0.5 |
| CCNC(=O)C[C@@H]1N=C(c2ccc(OCCCCc3ncc(C(=O)N[C@H]4C(C)(C)[C@H](Oc5ccc(C#N)c(Cl)c5)C4(C)C)cn3)cc2)c2c(sc(C)c2C)-n2c(C)nnc21 [Compound I-86] | 0.5 to 1.5 |  |  |  |
| CCNC(=O)C[C@@H]1N=C(c2ccc(OCCCN(C)c3ncc(C(=O)N[C@H]4C(C)(C)[C@H](Oc5ccc(C#N)c(Cl)c5)C4(C)C)cn3)cc2)c2c(sc(C)c2C)-n2c(C)nnc21 [Compound I-81] | 0.5 to 1.5 |  |  |  |
| Cc1sc2c(c1C)C(c1ccc(Cl)cc1)=N[C@@H](CC(=O)NCCOCCOCCOCCOCCOCCOCCN(C)c1ncc(C(=O)N[C@H]3C(C)(C)[C@H](Oc4ccc(C#N)c(Cl)c4)C3(C)C)cn1)c1nnc(C)n1-2 [Compound I-4] |  |  | < 0.5 | 1.5 to 3 |
| CCNC(=O)C[C@@H]1N=C(c2ccc(N3CCC(CN4CC(Oc5ncc(C(=O)N[C@H]6C(C)(C)[C@H](Oc7ccc(C#N)c(Cl)c7)C6(C)C)cn5)C4)CC3)cc2)c2c(sc(C)c2C)-n2c(C)nnc21 [Compound I-124] | 0.5 to 1.5 |  |  |  |

Further lines, with some results ahead:

| GI50 (T47D cells; Homo sapiens, T47D, 72 h) [µM] | GI50 (T47D cells) [µM] | Structure (SMILES) | GI50 [1] [µM] | GI50 [2] [µM] |
| --- | --- | --- | --- | --- |
| < 0.5 |  | Cc1sc2c(c1C)C(c1ccc(CC3CC4(CCN(c5ncc(C(=O)N[C@H]6C(C)(C)[C@H](Oc7ccc(C#N)c(Cl)c7)C6(C)C)cn5)CC4)C3)cc1)=N[C@@H](C)c1nnc(C)n1-2 [Compound I-436] |  |  |
| < 0.5 |  | CCNC(=O)C[C@@H]1N=C(c2ccc(N3CC(N(C)C4CN(c5ncc(C(=O)N[C@H]6C(C)(C)[C@H](Oc7ccc(C#N)c(Cl)c7)C6(C)C)cn5)C4)C3)cc2)c2c(sc(C)c2C)-n2c(C)nnc21 [Compound I-121] |  |  |
| 0.5 to 1.5 |  | Cc1sc2c(c1C)C(c1ccc(Cl)cc1)=N[C@H](CC(=O)NCCOCCOCCOCCOCCOC1CCN(c3ncc(C(=O)N[C@H]4C(C)(C)[C@H](Oc5ccc(C#N)c(Cl)c5)C4(C)C)cn3)CC1)c1nnc(C)n1-2 [Compound I-14] | 0.5 to 1.5 | 1.5 to 3 |
|  | < 0.5 | Cc1sc2c(c1C)C(c1ccc(CC3CC4(CCN(c5ncc(C(=O)N[C@H]6C(C)(C)[C@H](Oc7ccc(C#N)c(Cl)c7)C6(C)C)cn5)CC4)C3)cc1)=N[C@@H](C)c1nnc(C)n1-2 [Compound I-303] |  |  |
| < 0.5 |  | Cc1sc2c(c1C)C(c1ccc(CC3CC(C4CCN(c5ncc(C(=O)N[C@H]6C(C)(C)[C@H](Oc7ccc(C#N)c(Cl)c7)C6(C)C)cn5)CC4)C3)cc1)=NC(Cc1ncco1)c1nnc(C)n1-2 (some centres unmarked) [Compound I-136] | < 0.5 | > 3 |
| < 0.5 |  | Cc1sc2c(c1C)C(c1ccc(CCC3CC4(CCCN(c5ncc(C(=O)N[C@H]6C(C)(C)[C@H](Oc7ccc(C#N)c(Cl)c7)C6(C)C)cn5)C4)C3)cc1)=N[C@@H](Cc1ncco1)c1nnc(C)n1-2 [Compound I-241] | < 0.5 | 0.5 to 1.5 |
| 1.5 to 3 |  | Cc1sc2c(c1C)C(c1cccc(OCCOC3CCN(c4ncc(C(=O)N[C@H]5C(C)(C)[C@H](Oc6ccc(C#N)c(Cl)c6)C5(C)C)cn4)CC3)c1)=N[C@@H](CC(=O)O)c1nnc(C)n1-2 [Compound I-41] | > 3 | > 3 |
| 0.5 to 1.5 |  | CCNC(=O)C[C@@H]1N=C(c2ccc(OCCOCCOC3CCN(c4ncc(C(=O)N[C@H]5C(C)(C)[C@H](Oc6ccc(C#N)c(Cl)c6)C5(C)C)cn4)CC3)cc2)c2c(sc(C)c2C)-n2c(C)nnc21 [Compound I-44] | < 0.5 | < 0.5 |
| 1.5 to 3 |  | CCNC(=O)C[C@@H]1N=C(c2ccc(Oc3ncc(C(=O)N[C@H]4C(C)(C)[C@H](Oc5ccc(C#N)c(Cl)c5)C4(C)C)cn3)cc2)c2c(sc(C)c2C)-n2c(C)nnc21 [Compound I-84] | < 0.5 | 0.5 to 1.5 |
| < 0.5 |  | Cc1sc2c(c1C)C(c1ccc(OC3CC4(C3)CC3(CCN(c5ncc(C(=O)N[C@H]6C(C)(C)[C@H](Oc7ccc(C#N)c(Cl)c7)C6(C)C)cn5)CC3)C4)cc1)=N[C@@H](Cc1ncco1)c1nnc(C)n1-2 [Compound I-283] | < 0.5 | > 3 |
| < 0.5 |  | Cc1sc2c(c1C)C(c1ccc(OC3CC4(CCN(c5ncc(C(=O)N[C@H]6C(C)(C)[C@H](Oc7ccc(C#N)c(Cl)c7)C6(C)C)cn5)CC4)C3)cc1)=N[C@@H](Cc1ncco1)c1nnc(C)n1-2 [Compound I-49, N-[3-(3-chloro-4-cyano-phenoxy)-2,2,4,4-tetramethyl-cyclobutyl]-2-[2-[4-[(9S)-4,5,13-trimethyl-9-(oxazol-2-ylmethyl)-3-thia-1,8,11,12-tetrazatricyclo[8.3.0.02,6]trideca-2(6),4,7,10,12-pentaen-7-yl]phenoxy]-7-azaspiro[3.5]nonan-7-yl]pyrimidine-5-carboxamide] | < 0.5 | 0.5 to 1.5 |
| < 0.5 |  | CCNC(=O)C[C@@H]1N=C(c2ccc(N3CCC(N(C)C4CN(c5ncc(C(=O)N[C@H]6C(C)(C)[C@H](Oc7ccc(C#N)c(Cl)c7)C6(C)C)cn5)C4)CC3)cc2)c2c(sc(C)c2C)-n2c(C)nnc21 [Compound I-123] |  |  |
| < 0.5 |  | CCNC(=O)C[C@@H]1N=C(c2ccc(CCCN(C)c3ncc(C(=O)N[C@H]4C(C)(C)[C@H](Oc5ccc(C#N)c(Cl)c5)C4(C)C)cn3)cc2)c2c(sc(C)c2C)-n2c(C)nnc21 [Compound I-104] |  |  |
